We go through twelve compounds from ChEMBL document CHEMBL1153114, “Discovery of orally available integrin alpha5beta1 antagonists” (Bioorg Med Chem Lett, 2010).

Data set [1] addresses Integrin alpha-5/beta-1 (Homo sapiens, UniProt P05556+P08648). The data set can be described thus: Binding affinity to integrin alpha5beta1 receptor by ELISA. In kind it is protein-complex assay.
The target in data set [2] is Integrin alpha-V/beta-3 (Homo sapiens, UniProt P05106+P06756). As to the kind of experiment: Binding affinity to integrin […] receptor by ELISA. In kind it is protein-complex assay.
The target of data set [3] is Integrin alpha-V/beta-5 (Homo sapiens, UniProt P06756+P18084). As to the kind of experiment: Binding affinity to integrin […] receptor by ELISA. Type of data set: protein-complex assay.
In data set [4] the target is Integrin alpha-IIb/beta-3 (Homo sapiens, UniProt P05106+P08514). The data set can be described thus: Binding affinity to integrin alpha2bbeta3 receptor by ELISA. Type of data set: protein-complex assay.
A short description of data set [5]: Clearance in Wistar rat at 1 mg/kg, iv. In kind it is ADME, organism-based. Also noted: dose 1 mg/kg, route intravenous. To be noted: in vivo.
Data set [6] in a line: (§1) Terminal half life in Clearance in Wistar rat at 1 mg/kg, iv. Type of data set: ADME, organism-based. Also noted: dose 1 mg/kg, route intravenous. To be noted: Wistar, in vivo, read-out: beta t1/2.
Data set [7] can be described thus: Oral bioavailability in Wistar rat at 10 mg/kg. Type of data set: ADME, organism-based. To be noted: in vivo.
For data set [8], the system named is Rattus norvegicus. The description is as §1. Type of data set: ADME, organism-based. On the set-up: dose 1 mg/kg, route intravenous. To be noted: in vivo.

Chain of Integrin alpha-V/beta-5 (P06756 31-889 limits assumed): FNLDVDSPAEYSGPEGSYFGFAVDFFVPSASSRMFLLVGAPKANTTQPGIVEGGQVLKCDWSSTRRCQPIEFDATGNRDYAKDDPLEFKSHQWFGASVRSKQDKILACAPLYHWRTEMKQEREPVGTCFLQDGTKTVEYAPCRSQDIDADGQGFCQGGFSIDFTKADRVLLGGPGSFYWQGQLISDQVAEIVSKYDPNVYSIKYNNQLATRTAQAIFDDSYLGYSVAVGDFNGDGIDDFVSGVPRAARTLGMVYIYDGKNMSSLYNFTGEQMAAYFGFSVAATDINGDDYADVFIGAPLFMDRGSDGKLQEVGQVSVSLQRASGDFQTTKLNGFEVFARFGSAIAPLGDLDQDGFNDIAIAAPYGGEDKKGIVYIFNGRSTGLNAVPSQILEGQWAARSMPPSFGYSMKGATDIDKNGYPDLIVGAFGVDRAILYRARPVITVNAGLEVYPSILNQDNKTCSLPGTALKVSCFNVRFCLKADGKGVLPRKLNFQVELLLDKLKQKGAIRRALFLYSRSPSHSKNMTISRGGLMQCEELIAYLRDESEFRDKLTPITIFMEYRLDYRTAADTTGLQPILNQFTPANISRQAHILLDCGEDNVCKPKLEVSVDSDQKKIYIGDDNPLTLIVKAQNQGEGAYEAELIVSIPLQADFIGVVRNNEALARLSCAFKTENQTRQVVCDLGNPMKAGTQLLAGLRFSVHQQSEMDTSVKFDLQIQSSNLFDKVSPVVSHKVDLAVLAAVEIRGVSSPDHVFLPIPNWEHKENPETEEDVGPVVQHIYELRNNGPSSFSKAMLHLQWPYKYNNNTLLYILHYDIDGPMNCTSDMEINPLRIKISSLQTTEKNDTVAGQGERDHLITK
Chain of Integrin alpha-V/beta-5 (P06756 891-1048 limits assumed): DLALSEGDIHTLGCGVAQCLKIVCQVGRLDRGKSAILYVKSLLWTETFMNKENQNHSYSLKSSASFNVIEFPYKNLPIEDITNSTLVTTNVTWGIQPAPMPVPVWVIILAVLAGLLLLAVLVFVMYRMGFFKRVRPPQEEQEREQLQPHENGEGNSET
Chain of Integrin alpha-V/beta-5 (P18084 24-799 limits assumed): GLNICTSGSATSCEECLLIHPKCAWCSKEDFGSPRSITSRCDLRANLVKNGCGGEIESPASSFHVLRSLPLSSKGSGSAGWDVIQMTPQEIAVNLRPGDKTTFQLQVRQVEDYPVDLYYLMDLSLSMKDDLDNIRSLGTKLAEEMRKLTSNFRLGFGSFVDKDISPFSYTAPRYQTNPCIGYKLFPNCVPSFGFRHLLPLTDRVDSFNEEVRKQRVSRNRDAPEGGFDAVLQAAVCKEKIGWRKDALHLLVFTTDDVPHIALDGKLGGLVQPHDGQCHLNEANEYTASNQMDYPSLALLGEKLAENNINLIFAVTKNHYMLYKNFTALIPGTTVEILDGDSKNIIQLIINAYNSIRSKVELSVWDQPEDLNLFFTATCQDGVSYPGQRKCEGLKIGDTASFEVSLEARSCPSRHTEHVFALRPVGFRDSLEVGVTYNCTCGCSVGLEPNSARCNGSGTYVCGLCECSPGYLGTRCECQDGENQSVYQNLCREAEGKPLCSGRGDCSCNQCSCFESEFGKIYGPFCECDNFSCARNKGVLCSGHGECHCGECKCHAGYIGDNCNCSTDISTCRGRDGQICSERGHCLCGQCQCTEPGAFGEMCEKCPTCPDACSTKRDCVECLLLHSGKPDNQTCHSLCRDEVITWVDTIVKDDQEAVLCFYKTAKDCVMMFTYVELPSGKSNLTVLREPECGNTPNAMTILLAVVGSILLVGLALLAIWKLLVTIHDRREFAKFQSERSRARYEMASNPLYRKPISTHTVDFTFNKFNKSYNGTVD
Chain of Integrin alpha-5/beta-1 (P05556 21-798 limits assumed): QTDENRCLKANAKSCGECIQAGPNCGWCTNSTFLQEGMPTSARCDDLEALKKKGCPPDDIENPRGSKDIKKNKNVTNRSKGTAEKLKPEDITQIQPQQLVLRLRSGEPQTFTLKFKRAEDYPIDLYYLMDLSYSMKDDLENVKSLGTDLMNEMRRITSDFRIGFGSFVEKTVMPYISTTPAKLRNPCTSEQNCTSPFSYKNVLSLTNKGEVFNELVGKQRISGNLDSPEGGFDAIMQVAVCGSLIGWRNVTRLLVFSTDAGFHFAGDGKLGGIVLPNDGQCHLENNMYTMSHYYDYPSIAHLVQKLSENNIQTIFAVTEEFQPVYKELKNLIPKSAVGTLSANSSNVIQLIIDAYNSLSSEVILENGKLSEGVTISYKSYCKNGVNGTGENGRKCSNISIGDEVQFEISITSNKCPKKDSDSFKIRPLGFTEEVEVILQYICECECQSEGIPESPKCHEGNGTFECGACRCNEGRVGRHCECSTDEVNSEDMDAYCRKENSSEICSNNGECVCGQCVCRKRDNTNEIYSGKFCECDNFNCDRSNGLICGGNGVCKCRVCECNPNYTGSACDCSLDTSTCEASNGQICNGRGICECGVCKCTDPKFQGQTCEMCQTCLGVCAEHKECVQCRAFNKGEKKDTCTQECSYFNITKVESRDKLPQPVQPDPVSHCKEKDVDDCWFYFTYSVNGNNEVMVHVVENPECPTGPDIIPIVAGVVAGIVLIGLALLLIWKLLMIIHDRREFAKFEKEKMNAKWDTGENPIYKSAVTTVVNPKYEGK
Chain of Integrin alpha-5/beta-1 (P08648 42-894 limits assumed): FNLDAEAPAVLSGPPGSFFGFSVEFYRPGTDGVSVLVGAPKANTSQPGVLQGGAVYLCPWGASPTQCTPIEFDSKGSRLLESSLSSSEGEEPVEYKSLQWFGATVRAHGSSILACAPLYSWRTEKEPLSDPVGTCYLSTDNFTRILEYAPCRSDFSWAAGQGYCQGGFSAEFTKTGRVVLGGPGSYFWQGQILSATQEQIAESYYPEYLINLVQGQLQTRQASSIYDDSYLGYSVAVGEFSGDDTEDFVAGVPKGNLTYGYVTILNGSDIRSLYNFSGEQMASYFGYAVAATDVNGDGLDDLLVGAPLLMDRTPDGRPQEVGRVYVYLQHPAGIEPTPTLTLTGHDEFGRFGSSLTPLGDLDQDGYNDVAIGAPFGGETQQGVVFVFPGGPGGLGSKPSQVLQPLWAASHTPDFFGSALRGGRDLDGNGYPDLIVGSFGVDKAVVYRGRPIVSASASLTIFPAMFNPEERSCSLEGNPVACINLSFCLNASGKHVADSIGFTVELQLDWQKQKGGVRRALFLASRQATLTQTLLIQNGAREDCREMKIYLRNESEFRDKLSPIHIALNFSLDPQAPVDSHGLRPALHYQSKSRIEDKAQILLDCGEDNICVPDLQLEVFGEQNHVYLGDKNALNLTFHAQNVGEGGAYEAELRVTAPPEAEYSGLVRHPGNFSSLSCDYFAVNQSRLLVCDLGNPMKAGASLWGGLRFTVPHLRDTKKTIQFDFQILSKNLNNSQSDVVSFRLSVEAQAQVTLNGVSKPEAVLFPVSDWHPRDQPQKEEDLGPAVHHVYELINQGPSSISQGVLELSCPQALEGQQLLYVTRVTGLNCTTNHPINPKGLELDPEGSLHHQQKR
Chain of Integrin alpha-5/beta-1 (P08648 895-1049 limits assumed): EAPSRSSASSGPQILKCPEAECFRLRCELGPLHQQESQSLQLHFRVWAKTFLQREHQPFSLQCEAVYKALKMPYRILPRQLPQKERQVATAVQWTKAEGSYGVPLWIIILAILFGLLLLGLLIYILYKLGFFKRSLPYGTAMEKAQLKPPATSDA
Chain of Integrin alpha-V/beta-3 (P05106 27-788 limits assumed): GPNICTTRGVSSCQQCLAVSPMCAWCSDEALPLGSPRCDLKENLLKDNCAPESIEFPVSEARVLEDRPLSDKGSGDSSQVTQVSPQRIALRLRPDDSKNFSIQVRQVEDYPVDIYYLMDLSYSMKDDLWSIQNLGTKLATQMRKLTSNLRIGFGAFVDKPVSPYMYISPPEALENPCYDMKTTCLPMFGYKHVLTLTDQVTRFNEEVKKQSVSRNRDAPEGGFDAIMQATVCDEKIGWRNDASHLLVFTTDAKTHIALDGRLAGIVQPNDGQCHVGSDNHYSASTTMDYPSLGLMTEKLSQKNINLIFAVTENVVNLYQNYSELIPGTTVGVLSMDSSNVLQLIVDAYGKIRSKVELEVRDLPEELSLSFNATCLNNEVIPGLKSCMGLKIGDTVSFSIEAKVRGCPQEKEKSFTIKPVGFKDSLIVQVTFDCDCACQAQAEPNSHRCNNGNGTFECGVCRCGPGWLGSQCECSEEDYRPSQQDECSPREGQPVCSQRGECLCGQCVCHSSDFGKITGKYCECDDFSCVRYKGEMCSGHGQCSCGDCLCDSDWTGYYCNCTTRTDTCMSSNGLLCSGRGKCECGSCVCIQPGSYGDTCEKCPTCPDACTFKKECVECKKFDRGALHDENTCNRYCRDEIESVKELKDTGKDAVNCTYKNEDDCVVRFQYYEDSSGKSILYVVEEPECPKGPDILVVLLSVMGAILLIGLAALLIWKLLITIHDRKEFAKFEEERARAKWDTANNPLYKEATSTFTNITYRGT
Chain of Integrin alpha-V/beta-3 (P06756 31-889 limits assumed): as the sequence (P06756 31-889 limits assumed) above
Chain of Integrin alpha-V/beta-3 (P06756 891-1048 limits assumed): as the sequence (P06756 891-1048 limits assumed) above

For the compound `Cc1ccnc(NCc2cnc(-c3ccc(C[C@H](NC(=O)c4c(C)cc(C)cc4C)C(=O)O)cc3)s2)c1`, the IC50 is 13 nM in data set [1], 472 nM in data set [2], 502 nM in data set [3] and 150000 nM in data set [4].
`Cc1ccnc(NCc2csc(-c3ccc(C[C@H](NC(=O)c4c(C)cc(C)cc4C)C(=O)O)cc3)c2)c1`: the IC50 in data set [1] was found to be 46 nM; in data set [2], 1730 nM; in data set [3], 3570 nM; in data set [4] it was 97000 nM.
For `Cc1ccnc(NCc2sccc2-c2ccc(C[C@H](NC(=O)c3c(C)cc(C)cc3C)C(=O)O)cc2)c1`, the IC50 in data set [1] worked out at 887 nM; in data set [2], 16000 nM; in data set [3], 17000 nM; in data set [4] it was 77000 nM.
`Cc1ccnc(NCC2CC(=O)N(c3ccc(C[C@H](NC(=O)c4c(C)cc(C)cc4C)C(=O)O)cc3)C2)c1` (some centres undefined): the IC50 in data set [1] stood at 1.6 nM; in data set [2], 319 nM; in data set [3], 1340 nM.
In the case of `Cc1ccnc(NCc2cn(-c3ccc(C[C@H](NC(=O)c4c(C)cc(C)cc4C)C(=O)O)cc3)nn2)c1`, the IC50 in data set [1] came to 1.5 nM; in data set [2] it was 100 nM; in data set [3] it was 347 nM; in data set [4], 89000 nM.
Take `Cc1cc(C)c(C(=O)N[C@@H](CNC(=O)CO[C@H]2C[C@H](CNc3ccccn3)N(C(=O)CC(C)(C)C)C2)C(=O)O)c(C)c1`: the IC50 in data set [1] is 1.6 nM; in data set [2] it was 16000 nM; in data set [3] it was 90700 nM; in data set [4] it was above 50000 nM.
As to `Cc1ccnc(NCc2coc(-c3ccc(C[C@H](NC(=O)c4c(C)cc(C)cc4C)C(=O)O)cc3)c2)c1`, the IC50 amounted to 79 nM in data set [1], 2420 nM in data set [2], 2480 nM in data set [3] and 52000 nM in data set [4]. The compound further came in with a clearance in data set [5] of 17 mL/min/kg. For the same compound, in data set [6], the half-life is 1.47 h. In data set [7], this compound registered a bioavailability of 26%.
In the case of `Cc1ccnc(NCc2cc(-c3ccc(C[C@H](NC(=O)c4c(C)cc(C)cc4C)C(=O)O)cc3)on2)c1`, the IC50 stood at 6.1 nM in data set [1], 261 nM in data set [2], 257 nM in data set [3] and 118000 nM in data set [4]. The same compound yielded a clearance in data set [5] of 9 mL/min/kg. In addition, the half-life in data set [6] is 2.3 h. Also, the bioavailability in data set [7] was 11%.
`Cc1cc(C)c(C(=O)N[C@@H](Cc2ccc(OCCCNc3ccccn3)cc2)C(=O)O)c(C)c1`: the IC50 came out at 2.5 nM in data set [1] and 703 nM in data set [2].
For the compound `Cc1ccnc(NCC2CCN(c3ccc(CC(NC(=O)c4c(C)cc(C)cc4C)C(=O)O)cc3)CC2)c1` (racemic), the IC50 in data set [1] was determined as 2.3 nM; in data set [2], 84 nM; in data set [3], 11000 nM; in data set [4] it was 23000 nM. Moreover, the clearance in data set [5] amounted to 70 mL/min/kg. Further, in data set [8], the “beta t1/2” value was determined as 1.1 h. This compound also yielded a bioavailability in data set [7] of 16%.
As to `Cc1ccnc(NCc2cccc(-c3ccc(CC(NC(=O)c4c(C)cc(C)cc4C)C(=O)O)cc3)c2)c1` (racemic), the IC50 in data set [1] is 87 nM; in data set [2] it was 890 nM; in data set [3], above 20000 nM; in data set [4], 180000 nM.
Consider `Cc1ccnc(NCc2ccc(-c3ccc(CC(NC(=O)c4c(C)cc(C)cc4C)C(=O)O)cc3)cc2)c1` (racemic), for which the IC50 in data set [1] is 65 nM; in data set [2], 2920 nM; in data set [3] it was above 20 nM; in data set [4], 165000 nM.
